Measured values reported in ChEMBL document CHEMBL4219158 (Bioorg Med Chem Lett, 2018).
Calls of active or inactive are those of the source. The rule behind the calls is not given here.

Tests used:
[1] = molecular target: T1, 5-hydroxytryptamine receptor 2A (Homo sapiens, UniProt P28223); experiment: Antagonist activity at human recombinant 5-HT2A receptor expressed in CHOK1 cells assessed as inhibition of serotonin-induced calcium release preincubated for 15 mins followed by 5-HT addition measured every 1.7 secs for 60 secs by calcium 4 dye-based FLIPR assay; format: functional, cell-based
[2] = molecular target: T1, 5-hydroxytryptamine receptor 2A; experiment: Agonist activity at human recombinant 5-HT2A receptor expressed in CHOK1 cells assessed as induction of calcium release incubated for 15 mins measured every 1.7 secs for 60 secs by calcium 4 dye-based FLIPR assay; format: functional, cell-based

T1 sequence (P28223 whole entry): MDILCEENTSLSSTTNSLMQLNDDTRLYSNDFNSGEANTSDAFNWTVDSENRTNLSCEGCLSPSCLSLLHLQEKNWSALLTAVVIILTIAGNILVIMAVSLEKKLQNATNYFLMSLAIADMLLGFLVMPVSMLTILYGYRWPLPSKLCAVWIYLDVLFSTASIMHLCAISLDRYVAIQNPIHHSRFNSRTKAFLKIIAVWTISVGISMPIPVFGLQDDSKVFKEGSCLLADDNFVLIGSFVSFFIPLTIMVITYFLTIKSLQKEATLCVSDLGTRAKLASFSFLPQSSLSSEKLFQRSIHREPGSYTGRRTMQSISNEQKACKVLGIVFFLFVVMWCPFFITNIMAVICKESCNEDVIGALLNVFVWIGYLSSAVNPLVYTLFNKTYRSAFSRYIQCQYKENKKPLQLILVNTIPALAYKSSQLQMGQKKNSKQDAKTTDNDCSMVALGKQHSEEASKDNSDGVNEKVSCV

Structure (SMILES) | IC50 [1] [nM] | inhibition [1] | Activity [2]
C#CCOCCOCCOc1cccc([C@H](O)C2CCN(CCc3ccc(F)cc3)CC2)c1OC | 56.6 | Dose-dependent effect | inactive
COc1c(OCCOCCOCCOCCOCCOc2cccc(C(=O)C3CCN(CCc4ccc(F)cc4)CC3)c2OC)cccc1C(=O)C1CCN(CCc2ccc(F)cc2)CC1 | 29.5 | – | –
COc1c(OCCOCCOc2cn(CCOCCOc3cccc([C@H](O)C4CCN(CCc5ccc(F)cc5)CC4)c3OC)nn2)cccc1[C@H](O)C1CCN(CCc2ccc(F)cc2)CC1 | 36.5 | Dose-dependent effect | inactive
COc1c(OCCOCCN=[N+]=[N-])cccc1[C@H](O)C1CCN(CCc2ccc(F)cc2)CC1 | 46.7 | Dose-dependent effect | inactive
COc1c(OCCOCCOCCOCCOCCOCCOc2cccc(C(=O)C3CCN(CCc4ccc(F)cc4)CC3)c2OC)cccc1C(=O)C1CCN(CCc2ccc(F)cc2)CC1 | 39.8 | – | –
